In PubChem BioAssay AID192 (DTP/NCI, 2004):
“And” between values parts separate entries of the source, which are not always exact repeats. Identical values can stand only once. Toxic doses and inconclusive results are not listed. Square brackets hold non-standard residues; d marks the D form. Peptide text beside a SMILES is read from it. * marks the point of attachment. ξ: configuration not given here. Cbz = O=C(OCc1ccccc1)*; ξI = CCC(C)C(N)C(=O)O

Tested on: BDF1 mice, B16 melanoma ip, median survival T/C
Assay: NCI In Vivo Anticancer Drug Screen. Data for tumor model B16 Melanoma (intraperitoneal) in B6D2F1 (BDF1) mice
Details: endpoint: median survival time, higher = longer survival
Method in brief: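 In this screen, activity was judged from survival or tumor size in treated versus vehicle-treated tumor-bearing mice, reported as T/C.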

[1] = dose: 6.25 mg/kg/injection, schedule: Q01DX009 (ip), vehicle: saline
[2] = dose: 12.5 mg/kg/injection, schedule: Q01DX009 (ip), vehicle: saline
[3] = dose: 50.0 mg/kg/injection, schedule: Q01DX009 (ip), vehicle: saline
[4] = dose: 50.0 mg/kg/injection, schedule: Q01DX009 (ip), vehicle: saline with Tween-80
[5] = dose: 100.0 mg/kg/injection, schedule: Q01DX009 (ip), vehicle: saline with Tween-80
[6] = dose: 200.0 mg/kg/injection, schedule: Q01DX009 (ip), vehicle: saline with Tween-80
[7] = dose: 400.0 mg/kg/injection, schedule: Q01DX009 (ip), vehicle: saline with Tween-80
[8] = dose: 100.0 mg/kg/injection, schedule: Q01DX009 (ip), vehicle: saline
[9] = dose: 50.0 mg/kg/injection, schedule: Q01DX009 (ip), vehicle: Klucel (hydroxypropylcellulose) (HPC)
[10] = dose: 100.0 mg/kg/injection, schedule: Q01DX009 (ip), vehicle: Klucel (hydroxypropylcellulose) (HPC)
[11] = dose: 25.0 mg/kg/injection, schedule: Q01DX009 (ip), vehicle: Klucel (hydroxypropylcellulose) (HPC)
[12] = dose: 100.0 mg/kg/injection, schedule: Q04DX003 (ip), vehicle: Klucel (hydroxypropylcellulose) (HPC)
[13] = dose: 400.0 mg/kg/injection, schedule: Q04DX003 (ip), vehicle: Klucel (hydroxypropylcellulose) (HPC)
[14] = dose: 6.25 mg/kg/injection, schedule: Q01DX009 (ip), vehicle: saline with Tween-80
[15] = dose: 0.25 mg/kg/injection, schedule: Q01DX009 (ip), vehicle: saline
[16] = dose: 0.5 mg/kg/injection, schedule: Q01DX009 (ip), vehicle: saline
[17] = dose: 400.0 mg/kg/injection, schedule: Q01DX009 (ip), vehicle: Klucel (hydroxypropylcellulose) (HPC)
[18] = dose: 12.5 mg/kg/injection, schedule: Q01DX009 (ip), vehicle: saline with Tween-80
[19] = dose: 25.0 mg/kg/injection, schedule: Q01DX009 (ip), vehicle: saline with Tween-80
[20] = dose: 12.5 mg/kg/injection, schedule: Q01DX009 (ip), vehicle: Klucel (hydroxypropylcellulose) (HPC)
[21] = dose: 200.0 mg/kg/injection, schedule: Q04DX003 (ip), vehicle: Klucel (hydroxypropylcellulose) (HPC)

Question: With `NC(CSC(c1ccccc1)(c1ccccc1)c1ccccc1)C(=O)O` (centres undefined) as the molecule, how does the T/C (dose: 3.13 mg/kg/injection, schedule: Q01DX009 (ip), vehicle: saline) read?
Answer: 109 % of control

Question: What about the T/C [1] of the same molecule?
Answer: 118 % of control

Question: And the T/C [2]?
Answer: 120 % of control

Question: What about the T/C [3] of the same molecule?
Answer: 150 % of control

Question: For `CCC(C)C(NC(=O)CNC(=O)CNC(=O)OCc1ccccc1)C(=O)O` (stereo not drawn) (Cbz-Gly-Gly-[ξI]-OH), which T/C [4] is on record?
Answer: 94 % of control

Question: What about the T/C [5] of the same molecule?
Answer: 92 % of control

Question: And the T/C [6]?
Answer: 91 % of control

Question: And the T/C [7]?
Answer: 86 % of control

Question: Which T/C (dose: 12.5 mg/kg/injection, schedule: Q01DX005 (ip), vehicle: other) does the source give for `COC1/C=C\C=C(/C)C(=O)Nc2cc3nc4cccc(Br)c4oc-3c(c2=O)CC(C)CC(OC)C(O)C(C)/C=C(\C)C1OC(N)=O` (centres undefined) here?
Answer: 103 % of control

Question: What about the T/C (dose: 25.0 mg/kg/injection, schedule: Q01DX005 (ip), vehicle: other) of the same molecule?
Answer: 98 % of control

Question: And the T/C (dose: 50.0 mg/kg/injection, schedule: Q01DX005 (ip), vehicle: other)?
Answer: 108 % of control

Question: And the T/C (dose: 100.0 mg/kg/injection, schedule: Q01DX005 (ip), vehicle: other)?
Answer: 107 % of control

Question: What about the T/C (dose: 200.0 mg/kg/injection, schedule: Q01DX005 (ip), vehicle: other) of the same molecule?
Answer: 94 % of control

Question: Which results are given for `CCCN(CCC)C(=O)c1cccnc1`?
Answer: T/C [8]: 102 % of control; T/C (dose: 200.0 mg/kg/injection, schedule: Q01DX009 (ip), vehicle: saline): 106 % of control; T/C (dose: 400.0 mg/kg/injection, schedule: Q01DX009 (ip), vehicle: saline): 113 % of control

Question: Which T/C (dose: 50.0 mg/kg/injection, schedule: Q04DX003 (ip), vehicle: gum acacia) does the source give for `Nc1ccc(Nc2ccc([N+](=O)[O-])cc2[N+](=O)[O-])cc1` here?
Answer: 104 % of control

Question: And the T/C (dose: 100.0 mg/kg/injection, schedule: Q04DX003 (ip), vehicle: gum acacia)?
Answer: 97 % of control

Question: And the T/C (dose: 200.0 mg/kg/injection, schedule: Q04DX003 (ip), vehicle: gum acacia)?
Answer: 95 % of control

Question: With `CCCCCCCCCCCCCCCC(=O)N(C/C=C/CN(C(=O)CCCCCCCCCCCCCCC)C(C)CCCN(CC)CC)C(C)CCCN(CC)CC` (centres undefined) as the molecule, how does the T/C (dose: 3.13 mg/kg/injection, schedule: Q01DX009 (ip), vehicle: other) read?
Answer: 98 % of control

Question: What about the T/C (dose: 6.25 mg/kg/injection, schedule: Q01DX009 (ip), vehicle: other) of the same molecule?
Answer: 99 % of control

Question: And the T/C (dose: 12.5 mg/kg/injection, schedule: Q01DX009 (ip), vehicle: other)?
Answer: 93 % of control

Question: For `C[C@]12CC[C@H]3C(=CCc4cc(O)ccc43)[C@@H]1C/C(=N\O)C2=O`, which T/C [5] is on record?
Answer: 95 % of control

Question: And the T/C [6]?
Answer: 102 % of control

Question: What about the T/C [7] of the same molecule?
Answer: 90 % of control

Question: For `c1ccc(N/N=C2/CCN3CCCc4cccc2c43)cc1`, which T/C (dose: 25.0 micrograms/kg/injection, schedule: Q01DX009 (ip), vehicle: DMSO) is on record?
Answer: 86 % of control

Question: Which results are given for `CC(=O)C(C)(NCc1ccccc1)c1ccccc1` (centres undefined)?
Answer: T/C [9]: 86 % of control; T/C [10]: 89 % of control

Question: For `O=C(Nc1ccc(F)cc1)c1cccc(C(=O)Nc2ccc(F)cc2)c1`, which T/C [11] is on record?
Answer: 114 % of control

Question: What about the T/C [9] of the same molecule?
Answer: 101 % of control

Question: And the T/C [10]?
Answer: 96 % of control

Question: Which results are given for `CN(C)CCC(=O)c1ccccc1`?
Answer: T/C [1]: 105 % of control; T/C [2]: 105 % of control

Question: How did the T/C (dose: 25.0 mg/kg/injection, schedule: Q01DX009 (ip), vehicle: saline) turn out when `CNC1C(O)C(NC)C2OC3(O)C(=O)CC(C)OC3OC2C1O` (centres undefined) was run?
Answer: 95 % of control

Question: And the T/C [3]?
Answer: 100 % of control

Question: What about the T/C [8] of the same molecule?
Answer: 109 % of control

Question: For `C=CCOCC(O)CN(C)c1ccccc1` (centres undefined), which T/C (dose: 25.0 mg/kg/injection, schedule: Q04DX003 (ip), vehicle: Klucel (hydroxypropylcellulose) (HPC)) is on record?
Answer: 92 % of control

Question: What about the T/C (dose: 50.0 mg/kg/injection, schedule: Q04DX003 (ip), vehicle: Klucel (hydroxypropylcellulose) (HPC)) of the same molecule?
Answer: 95 % of control

Question: And the T/C [12]?
Answer: 89 % of control and 90 % of control

Question: And the T/C [13]?
Answer: 88 % of control

Question: How did the T/C [14] turn out when `[Cl][Hg][CH]1CCC2OC1CC[CH]2[Hg][Cl]` (centres undefined) was run?
Answer: 104 % of control

Question: What does the source list for `COc1ccc2nc3cc(Cl)ccc3c(NC(C)CCCN(CCCl)CCCl)c2c1` (centres undefined)?
Answer: T/C (dose: 0.12 mg/kg/injection, schedule: Q01DX009 (ip), vehicle: saline): 114 % of control; T/C [15]: 105 % of control; T/C [16]: 105 % of control; T/C (dose: 0.62 mg/kg/injection, schedule: Q04DX003 (ip), vehicle: saline with Tween-80): 110 % of control; T/C (dose: 1.25 mg/kg/injection, schedule: Q04DX003 (ip), vehicle: saline with Tween-80): 110 % of control

Question: Which T/C [10] does the source give for `Cc1cccc(C)c1NC(=O)NC(C)C` here?
Answer: 87 % of control

Question: What about the T/C (dose: 200.0 mg/kg/injection, schedule: Q01DX009 (ip), vehicle: Klucel (hydroxypropylcellulose) (HPC)) of the same molecule?
Answer: 115 % of control

Question: And the T/C [17]?
Answer: 118 % of control

Question: How did the T/C [5] turn out when `NC(Cc1ccc(Cl)cc1)C(=O)O` (centres undefined) was run?
Answer: 123 % of control

Question: And the T/C [6]?
Answer: 115 % of control

Question: And the T/C [7]?
Answer: 104 % of control

Question: For `Cc1ccc(NC(=O)COc2ccc(Cl)cc2)c(C)c1`, which T/C (dose: 3.13 mg/kg/injection, schedule: Q01DX009 (ip), vehicle: saline with Tween-80) is on record?
Answer: 119 % of control

Question: And the T/C [14]?
Answer: 107 % of control

Question: What about the T/C [18] of the same molecule?
Answer: 97 % of control

Question: And the T/C [19]?
Answer: 95 % of control

Question: And the T/C [4]?
Answer: 91 % of control

Question: What does the source list for `O=c1oc(-c2ccc(Cl)cc2)nc2cc(Cl)ccc12`?
Answer: T/C (dose: 6.25 mg/kg/injection, schedule: Q01DX009 (ip), vehicle: Klucel (hydroxypropylcellulose) (HPC)): 99 % of control; T/C [20]: 93 % of control; T/C [11]: 105 % of control and 106 % of control

Question: With `CCCCCCCCCCCC(=O)N(CCCC)CCCC` as the molecule, how does the T/C (dose: 37.5 mg/kg/injection, schedule: Q01DX009 (ip), vehicle: Klucel (hydroxypropylcellulose) (HPC)) read?
Answer: 101 % of control

Question: And the T/C (dose: 75.0 mg/kg/injection, schedule: Q01DX009 (ip), vehicle: Klucel (hydroxypropylcellulose) (HPC))?
Answer: 101 % of control

Question: And the T/C (dose: 150.0 mg/kg/injection, schedule: Q01DX009 (ip), vehicle: Klucel (hydroxypropylcellulose) (HPC))?
Answer: 97 % of control

Question: Which T/C (dose: 100.0 mg/kg/injection, schedule: Q04DX003 (ip), vehicle: saline with Tween-80) does the source give for `COC(=O)C1(C(=O)OC)CC1CCl` (centres undefined) here?
Answer: 90 % of control

Question: What about the T/C (dose: 200.0 mg/kg/injection, schedule: Q04DX003 (ip), vehicle: saline with Tween-80) of the same molecule?
Answer: 96 % of control

Question: For `CSc1ccc(NC(=O)CCl)cc1`, which T/C [18] is on record?
Answer: 95 % of control

Question: And the T/C [19]?
Answer: 105 % of control

Question: And the T/C [4]?
Answer: 96 % of control

Question: Which results are given for `CCCCCCCCCCCCCCCc1ccc(C(=O)C[n+]2ccccc2)cc1`?
Answer: T/C (dose: 3.12 mg/kg/injection, schedule: Q01DX009 (ip), vehicle: saline with Tween-80): 102 % of control; T/C [14]: 100 % of control; T/C [18]: 95 % of control; T/C [19]: 93 % of control

Question: How did the T/C [4] turn out when `CCCCCCCCCNC(=O)Nc1cccc(Cl)c1C` was run?
Answer: 99 % of control

Question: And the T/C [5]?
Answer: 91 % of control

Question: What does the source list for `COC1=CC(=O)N(C(=O)C2CSC(C(CO)NC(=O)c3csc(/C=N/O)n3)=N2)C1` (centres undefined)?
Answer: T/C [10]: 97 % of control; T/C [17]: 106 % of control

Question: For `O=C1C(N2CC2)=C(N2CCCC(O)C2)C(=O)C(N2CC2)=C1N1CCCC(O)C1` (centres undefined), which T/C [15] is on record?
Answer: 113 % of control

Question: What about the T/C [16] of the same molecule?
Answer: 120 % of control

Question: What does the source list for `CC(=O)Nc1ccc(C)c(Cl)c1`?
Answer: T/C [5]: 111 % of control; T/C [6]: 90 % of control

Question: Which results are given for `COc1ccccc1NC(=O)Nc1ccc(F)cc1`?
Answer: T/C [12]: 95 % of control; T/C [21]: 95 % of control; T/C [13]: 89 % of control

Question: With `CC(C)c1ccc(C(c2c(O)c3ccccc3oc2=O)c2c(O)c3ccccc3oc2=O)cc1` as the molecule, how does the T/C [20] read?
Answer: 99 % of control

Question: What about the T/C [11] of the same molecule?
Answer: 97 % of control

Question: What about the T/C [9] of the same molecule?
Answer: 107 % of control

Question: `Cc1ccc(S(=O)(=O)N(CCO)CC(C)O)cc1` (centres undefined) was tested. Which T/C [12] did it give?
Answer: 105 % of control

Question: What about the T/C [21] of the same molecule?
Answer: 94 % of control

Question: And the T/C [13]?
Answer: 100 % of control
